Measured values from BigSolDB 2.1.

COC(=O)[C@@H](N)CC(C)C.Cl
solubility (mole fraction)
Details | 283.15 K | 288.15 K | 293.15 K | 298.15 K | 303.15 K | 308.15 K | 313.15 K | 318.15 K | 323.15 K | 328.15 K
in 1,4-dioxane | – | 0.0539 | 0.0579 | 0.0621 | 0.0715 | 0.0799 | 0.0918 | 0.11 | 0.127 | 0.158
in 2-butanone | 0.00114 | 0.00125 | 0.00141 | 0.00158 | 0.00186 | 0.00238 | 0.00297 | 0.00388 | 0.00524 | –
in acetone | 0.00343 | 0.00389 | 0.00451 | 0.00562 | 0.00661 | 0.00806 | 0.01 | 0.0129 | 0.0172 | –
in acetonitrile | 0.00109 | 0.00154 | 0.00205 | 0.00313 | 0.00401 | 0.0051 | 0.00776 | 0.011 | 0.0162 | –
in dimethyl carbonate | 0.000287 | 0.000319 | 0.00038 | 0.000478 | 0.000629 | 0.000924 | 0.00127 | 0.00167 | 0.00213 | –
in ethyl acetate | 0.000226 | 0.000237 | 0.000277 | 0.000342 | 0.000421 | 0.000593 | 0.000729 | 0.000892 | 0.00124 | –
in isopropyl acetate | 0.000136 | 0.000152 | 0.000178 | 0.000219 | 0.000246 | 0.00029 | 0.000358 | 0.000429 | 0.000561 | –
in methyl acetate | 0.000388 | 0.000472 | 0.000629 | 0.000834 | 0.00105 | 0.00138 | 0.0019 | 0.00244 | 0.00347 | –
in n-butanol | 0.0885 | 0.0916 | 0.0983 | 0.109 | 0.123 | 0.139 | 0.155 | 0.171 | 0.196 | –
in n-hexane | 0.000296 | 0.000331 | 0.000371 | 0.000433 | 0.000505 | 0.00063 | 0.000782 | 0.000983 | 0.0012 | –
in n-pentanol | 0.0571 | 0.062 | 0.0696 | 0.0787 | 0.0917 | 0.104 | 0.121 | 0.137 | 0.156 | –
in n-propyl acetate | 0.00123 | 0.00129 | 0.00145 | 0.00189 | 0.00234 | 0.00292 | 0.0036 | 0.00455 | 0.00541 | –
